Laboratory results reported in ChEMBL document CHEMBL5532713, “Ergone Derivatives from the Deep-Sea-Derived Fungus Aspergillus terreus YPGA10 and 25,28-Dihydroxyergone-Induced Apoptosis in Human Colon Cancer SW620 Cells” (J Nat Prod, 2024).
Activity calls are given as the source filed them. The calls are words filed in the database; no cut-off is given here.

Columns and labels:
U-937 [1] = experiment: Inhibition of RSL3-induced ferroptosis in human U-937 cells; assay type: functional, cell-based
U-937 [2] = experiment: Effect on cell survival in RSL3-induced human U-937 cells at 50 uM; assay type: functional, cell-based
A549 = experiment: Antiproliferative activity against human A549 cells assessed as reduction in cell viability by CCK-8 assay; assay type: functional, cell-based
K562 = experiment: Antiproliferative activity against human K562 cells assessed as reduction in cell viability incubated for 48 hrs by CCK-8 assay; assay type: functional, cell-based; settings: K562, 48 h
MCF7 = experiment: Antiproliferative activity against human MCF7 cells assessed as reduction in cell viability by CCK-8 assay; assay type: functional, cell-based; settings: dose 40.0 µM, time 48.0 hrs
PANC-1 = experiment: Antiproliferative activity against human PANC-1 cells assessed as reduction in cell viability by CCK-8 assay; assay type: functional, cell-based
THP-1 = experiment: Antiproliferative activity against human THP-1 cells assessed as reduction in cell viability incubated for 48 hrs by CCK-8 assay; assay type: functional, cell-based; settings: THP-1, 48 h
MDA-MB-231 = experiment: Antiproliferative activity against human MDA-MB-231 cells assessed as reduction in cell viability by CCK-8 assay; assay type: functional, cell-based; settings: dose 40.0 µM, time 48.0 hrs
[3] = Cytotoxicity against human BEAS-2B cells assessed as inhibition of cell growth at 40 uM incubated for 48 hrs by CCK-8 assay relative to control; assay type: toxicity, cell-based
Jurkat = experiment: Antiproliferative activity against human Jurkat cells assessed as reduction in cell viability incubated for 48 hrs by CCK-8 assay; assay type: functional, cell-based
CCRF-CEM = experiment: Antiproliferative activity against human CCRF-CEM cells assessed as reduction in cell viability incubated for 48 hrs by CCK-8 assay; assay type: functional, cell-based
SW-620 [4] = experiment: Antiproliferative activity against human SW-620 cells assessed as reduction in cell viability at 40 uM incubated for 48 hrs by CCK-8 assay; assay type: functional, cell-based
SW-620 [5] = experiment: Antiproliferative activity against human SW-620 cells assessed as reduction in cell viability incubated for 48 hrs by CCK-8 assay; assay type: functional, cell-based; settings: for IC50: SW-620, 48 h
U-937 [6] = experiment: Antiproliferative activity against human U-937 cells assessed as reduction in cell viability incubated for 48 hrs by CCK-8 assay; assay type: toxicity, cell-based; settings: u-937, 48 h, 50 µM
SMMC-7721 = experiment: Antiproliferative activity against human SMMC-7721 cells assessed as reduction in cell viability by CCK-8 assay; assay type: functional, cell-based
SW-620 [7] = experiment: Induction of apoptosis in human SW-620 cells assessed as early apoptotic cells at 2.5 uM incubated for 48 hrs by Annexin V FITC/PI staining based flow cytometry analysis (reference value: 5.00 %); assay type: functional
SW-620 [8] = experiment: Antiproliferative activity against human SW-620 cells assessed as change in F-actin cytoskeleton morphology at 1.25 uM incubated for 48 hrs by DAPI staining based laser confocal microscope analysis; assay type: functional, cell-based
SW-620 [9] = experiment: Antiproliferative activity against human SW-620 cells assessed as inhibition of cell proliferation by measuring decrease in fluorescence intensity incubated for 48 hrs by EdU incorporation based fluorescence microscopic analysis; assay type: functional; settings: dose 1.25-5 µM
SW-620 [10] = experiment: Induction of apoptosis in human SW-620 cells assessed as late apoptotic cells at 2.5 uM incubated for 48 hrs by Annexin V FITC/PI staining based flow cytometry analysis (reference value: 4.90 %); assay type: functional
SW-620 [11] = experiment: Induction of apoptosis in human SW-620 cells assessed as late apoptotic cells at 1.25 uM incubated for 48 hrs by Annexin V FITC/PI staining based flow cytometry analysis (reference value: 4.90 %); assay type: functional
SW-620 [12] = experiment: Antiproliferative activity against human SW-620 cells assessed as change in F-actin cytoskeleton density at 2.5 to 5 uM incubated for 48 hrs by DAPI staining based laser confocal microscope analysis; assay type: functional, cell-based; settings: dose 2.5-5 µM
SW-620 [13] = experiment: Induction of apoptosis in human SW-620 cells assessed as increase in Bax expression at 1.25 to 5 uM incubated for 48 hrs by Western blotting analysis; assay type: functional, cell-based; settings: dose 1.25-5 µM
SW-620 [14] = experiment: Induction of apoptosis in human SW-620 cells assessed as increase in Bax/Bcl-2 ratio incubated for 48 hrs by Western blotting analysis; assay type: functional, cell-based; settings: dose 1.25-5 µM
SW-620 [15] = experiment: Induction of apoptosis in human SW-620 cells assessed as necrotic cells at 1.25 uM incubated for 48 hrs by Annexin V FITC/PI staining based flow cytometry analysis (reference value: 0.057 %); assay type: functional
SW-620 [16] = experiment: Induction of apoptosis in human SW-620 cells assessed as late apoptotic cells at 5 uM incubated for 48 hrs by Annexin V FITC/PI staining based flow cytometry analysis (reference value: 4.90 %); assay type: functional
SW-620 [17] = experiment: Induction of apoptosis in human SW-620 cells assessed as necrotic cells at 2.5 uM incubated for 48 hrs by Annexin V FITC/PI staining based flow cytometry analysis (reference value: 0.057 %); assay type: functional
SW-620 [18] = experiment: Induction of apoptosis in human SW-620 cells assessed as viable cells at 5 uM incubated for 48 hrs by Annexin V FITC/PI staining based flow cytometry analysis (reference value: 90.0 %); assay type: functional; settings: read-out: Activity
SW-620 [19] = experiment: Induction of apoptosis in human SW-620 cells assessed as early apoptotic cells at 5 uM incubated for 48 hrs by Annexin V FITC/PI staining based flow cytometry analysis (reference value: 5.00 %); assay type: functional
SW-620 [20] = experiment: Induction of apoptosis in human SW-620 cells assessed as viable cells at 1.25 uM incubated for 48 hrs by Annexin V FITC/PI staining based flow cytometry analysis (reference value: 90.0 %); assay type: functional; settings: read-out: Activity
SW-620 [21] = experiment: Induction of apoptosis in human SW-620 cells assessed as viable cells at 2.5 uM incubated for 48 hrs by Annexin V FITC/PI staining based flow cytometry analysis (reference value: 90.0 %); assay type: functional; settings: read-out: Activity
SW-620 [22] = experiment: Induction of apoptosis in human SW-620 cells assessed as early apoptotic cells at 1.25 uM incubated for 48 hrs by Annexin V FITC/PI staining based flow cytometry analysis (reference value: 5.00 %); assay type: functional
SW-620 [23] = experiment: Induction of apoptosis in human SW-620 cells assessed as necrotic cells at 5 uM incubated for 48 hrs by Annexin V FITC/PI staining based flow cytometry analysis (reference value: 0.057 %); assay type: functional
SW-620 [24] = experiment: Induction of apoptosis in human SW-620 cells assessed as decrease in Bcl-2 expression at 1.25 to 5 uM incubated for 48 hrs by Western blotting analysis; assay type: functional, cell-based; settings: dose 1.25-5 µM

CC(=O)O[C@H]1C[C@H]([C@H](C)/C=C/[C@H](C)C(C)(O)CO)[C@]2(C)C1=C1C=CC3=CC(=O)CC[C@]3(C)[C@H]1C[C@H]2O (stereo not given in full)
EC50 (U-937 [1]): 30 µM

CO[C@H]1C[C@H]([C@H](C)/C=C/[C@H](CO)C(C)(C)O)[C@]2(C)C1=C1C=CC3=CC(=O)CC[C@]3(C)[C@H]1C[C@H]2O
Activity (U-937 [2]): Active

CO[C@@H]1C[C@H]([C@H](C)/C=C/[C@H](CO)C(C)(C)O)[C@]2(C)C1=C1C=CC3=CC(=O)CC[C@]3(C)[C@H]1C[C@H]2O
Activity (U-937 [2]): Active

C[C@H](/C=C/[C@H](CO)C(C)(C)O)[C@H]1C[C@H](O)C2=C3C=CC4=CC(=O)CC[C@]4(C)[C@H]3C[C@@H](O)[C@@]21C
Activity (U-937 [2]): Active

C[C@H](/C=C/[C@H](CO)C(C)(C)O)[C@H]1CCC2=C3C=CC4=CC(=O)CC[C@]4(C)[C@H]3C[C@@H](O)[C@@]21C
Activity (A549): inactive | IC50 (K562): 5.7 µM | Activity (MCF7): inactive | Activity (PANC-1): inactive | IC50 (THP-1): 5.7 µM | Activity (MDA-MB-231): inactive | inhibition at 48 h, 40 µM [3]: < 7% | IC50 (Jurkat): 5.7 µM | IC50 (CCRF-CEM): 5.7 µM | Activity (SW-620 [4]): Active | Activity (U-937 [2]): Active | Activity (SW-620 [5]): Dose-Dependent Effect | IC50 (SW-620 [5]): 8.4 µM | Activity (U-937 [6]): Toxic | Activity (SMMC-7721): inactive

C[C@H](/C=C/[C@H](C)C(C)(C)O)[C@H]1C[C@H](O)C2=C3C=CC4=CC(=O)CC[C@]4(C)[C@H]3C[C@@H](O)[C@@]21C
Activity (U-937 [2]): Active

C[C@H](/C=C/[C@H](CO)C(C)(C)O)[C@H]1CCC2=C3C=CC4=CC(=O)CC[C@]4(C)[C@H]3CC[C@@]21C
Activity (A549): inactive | Activity (SW-620 [7]): 12.4% | Activity (SW-620 [8]): Active | Activity (SW-620 [9]): Dose-Dependent Effect | Activity (SW-620 [10]): 61.4% | Activity (SW-620 [11]): 14.1% | Activity (MCF7): inactive | Activity (SW-620 [12]): Active | Activity (PANC-1): inactive | Activity (SW-620 [13]): Active | Activity (MDA-MB-231): inactive | Activity (SW-620 [14]): Dose-Dependent Effect | Activity (SW-620 [15]): 0.63% | inhibition at 48 h, 40 µM [3]: < 7% | Activity (SW-620 [16]): 80.8% | Activity (SW-620 [17]): 2.55% | viability at 5 µM (SW-620 [18]): 3.35% | Activity (SW-620 [19]): 14.6% | viability at 1.25 µM (SW-620 [20]): 79.1% | viability at 2.5 µM (SW-620 [21]): 23.6% | Activity (SW-620 [22]): 6.2% | Activity (SW-620 [4]): Active | Activity (SW-620 [23]): 1.23% | Activity (SW-620 [5]): Dose-Dependent Effect | IC50 (SW-620 [5]): 3.1 µM | Activity (SW-620 [24]): Active | Activity (SMMC-7721): inactive

COc1cccc2c1C(=O)c1c(O)c3c(c(O)c1C2=O)C[C@@](O)(C(=O)CO)C[C@@H]3O[C@H]1C[C@H](N)[C@H](O)[C@H](C)O1 [DOXORUBICIN]
IC50 (SW-620 [5]): 2.3 µM

CC(=O)O[C@H]1C[C@H]([C@H](C)/C=C/[C@H](CO)C(C)(C)O)[C@]2(C)C1=C1C=CC3=CC(=O)CC[C@]3(C)[C@H]1C[C@H]2O
Activity (U-937 [2]): Active

C[C@H](/C=C/[C@H](CO)C(C)(C)O)[C@H]1CC(=O)C2=C3C=CC4=CC(=O)CC[C@]4(C)[C@H]3C[C@@H](O)[C@@]21C
Activity (U-937 [2]): Active
